# Reference: article PMC7163368 (British Journal of Clinical Pharmacology, 2020)
# Values joined by “and” are separate entries in the source; they are usually repeats but may differ in a detail not shown here. Equal values may be shown once.
# Target: DPP‐IV (Homo sapiens, UniProt P27487)
# Experiment: Plasma DPP-IV activity
# Assay type: in vivo
# Conditions: for Post‐dose DPP‐IV activity over 24 hours: day 0, mean
# [1] = 30 mg i.v. (n = 5), day 0, mean (SD)
# [2] = 30 mg s.c. (n = 5), day 0, mean (SD)
# [3] = 60 mg s.c. (n = 10), day 0, mean (SD)
# [4] = 90 mg s.c. (n = 10), day 0, mean (SD)
# DPP‐IV, sequence (P27487 39-766): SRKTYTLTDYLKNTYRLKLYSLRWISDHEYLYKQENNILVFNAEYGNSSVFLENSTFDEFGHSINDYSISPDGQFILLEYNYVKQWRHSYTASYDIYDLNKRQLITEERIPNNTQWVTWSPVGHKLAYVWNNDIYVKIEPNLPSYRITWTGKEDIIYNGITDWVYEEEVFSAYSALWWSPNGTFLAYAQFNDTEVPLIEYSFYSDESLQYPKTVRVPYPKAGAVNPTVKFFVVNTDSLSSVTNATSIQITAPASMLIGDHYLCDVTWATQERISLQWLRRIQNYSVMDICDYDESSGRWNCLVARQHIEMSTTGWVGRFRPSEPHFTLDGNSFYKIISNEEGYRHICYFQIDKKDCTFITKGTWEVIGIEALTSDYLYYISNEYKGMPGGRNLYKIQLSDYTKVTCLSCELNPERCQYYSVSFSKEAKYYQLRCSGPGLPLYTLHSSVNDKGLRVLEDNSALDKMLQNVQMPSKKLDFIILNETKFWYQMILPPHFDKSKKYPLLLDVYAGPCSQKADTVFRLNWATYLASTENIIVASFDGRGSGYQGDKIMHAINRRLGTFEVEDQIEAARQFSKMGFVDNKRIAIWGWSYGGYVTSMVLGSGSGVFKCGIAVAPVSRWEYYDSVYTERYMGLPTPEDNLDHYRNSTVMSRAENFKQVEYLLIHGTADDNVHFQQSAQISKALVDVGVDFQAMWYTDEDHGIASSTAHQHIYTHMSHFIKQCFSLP
smiles,measurement,setting,value
O=C(CN[C@@H]1CCNC1)N1CCC[C@H]1B(O)O [dutogliptin],Post‐dose DPP‐IV activity over 24 hours,30 mg i.v. (n = 5),37.83%
same,AUEC0‐24h,[1],908 (149) %*h
same,Lowest DPP‐IV activity,[1],7.63 (0.95) %
same,Time to maximum DPP‐IV inhibition,30 mg intravenous,0.5 h
same,Post‐dose DPP‐IV activity over 24 hours,30 mg s.c. (n = 5),35.36%
same,AUEC0‐24h,[2],849 (74) %*h
same,Lowest DPP‐IV activity,[2],8.03 (1.76) %
same,Time to lowest DPP‐IV activity,30 mg subcutaneous,≤ 2 h
same,Post‐dose DPP‐IV activity over 24 hours,60 mg s.c. (n = 10),22.42%
same,AUEC0‐24h,[3],538 (44) %*h
same,Lowest DPP‐IV activity,[3],7.67 (1.18) %
same,Time to lowest DPP‐IV activity,60 mg subcutaneous,≤ 2 h
same,Post‐dose DPP‐IV activity over 24 hours,90 mg s.c. (n = 10),20.46%
same,AUEC0‐24h,[4],491 (86) %*h
same,Lowest DPP‐IV activity,[4],7.58 (1.17) %
same,Time to lowest DPP‐IV activity,90 mg subcutaneous,≤ 4 h
same,Post‐dose DPP‐IV activity over 24 hours,120 mg s.c. (n = 10),17.96%
same,AUEC0‐24h,"120 mg s.c. (n = 10), day 0, mean (SD)",431 (93) %*h
same,DPP‐IV inhibition over 24 hours,"120 mg s.c. multiple doses, day 6",86% and > 86%
same,Maximum AUEC0‐24h,"120 mg s.c. multiple dosing cohort, day 6, SD: 73",342 h %
same,Time to lowest DPP‐IV activity,120 mg subcutaneous,≤ 4 h
same,DPP‐IV activity reduced to,all participants receiving 60 mg or more subcutaneously,< 10%
same,Maximum DPP‐IV inhibition,all subjects receiving ≥60 mg,> 90%
same,Lowest DPP‐IV activity,"day 0, subcutaneous administration overall, SD: 1.60",7.19%
